Test results from ChEMBL document CHEMBL1201862, “PubChem BioAssay data set” (2004).
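Tested at 5 concentrations; 48 h exposure; 96-well plates; endpoints linearly interpolated, else capped at highest concentration. GI50 = concentration required for 50% inhibition of growth.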 Activity calls are given as the source filed them. Rule as the data show it: active = GI50 up to about 1.1 µM and inactive = higher.

How the values were obtained:
Assay in all cases: growth of human tumour cells (NCI), 48 h
MCF7 = test system: MCF7
MDA-MB-435 = test system: MDA-MB-435
RXF 393 = test system: RXF 393
Hs-578T = test system: Hs-578T
CAKI-1 = test system: CAKI-1
786-0 = test system: 786-0
MOLT-4 = test system: MOLT-4
UO-31 = test system: UO-31
SF-268 = test system: SF-268
T47D = test system: T47D
SN12C = test system: SN12C
NCI/ADR-RES = test system: NCI/ADR-RES
SK-MEL-2 = test system: SK-MEL-2
ACHN = test system: ACHN
RPMI-8226 = test system: RPMI-8226
MDA-N = test system: MDA-N
SW-620 = test system: SW-620
OVCAR-5 = test system: OVCAR-5
HCT-116 = test system: HCT-116
SNB-75 = test system: SNB-75
BT-549 = test system: BT-549
SF-539 = test system: SF-539
COLO 205 = test system: COLO 205
IGROV-1 = test system: IGROV-1
HL-60 = test system: HL-60
A498 = test system: A498
OVCAR-8 = test system: OVCAR-8
SNB-19 = test system: SNB-19
EKVX = test system: EKVX
K562 = test system: K562
LOX IMVI = test system: LOX IMVI
KM12 = test system: KM12
OVCAR-3 = test system: OVCAR-3
Malme-3M = test system: Malme-3M
NCI-H23 = test system: NCI-H23
U-251 = test system: U-251
SR = test system: SR
SK-OV-3 = test system: SK-OV-3
DU-145 = test system: DU-145
NCI-H226 = test system: NCI-H226
PC-3 = test system: PC-3
HOP-62 = test system: HOP-62
HCT-15 = test system: HCT-15
UACC-257 = test system: UACC-257
CCRF-CEM = test system: CCRF-CEM
SF-295 = test system: SF-295
UACC-62 = test system: UACC-62
SK-MEL-5 = test system: SK-MEL-5
MDA-MB-231 = test system: MDA-MB-231
TK-10 = test system: TK-10
M14 = test system: M14
SK-MEL-28 = test system: SK-MEL-28
HT-29 = test system: HT-29
NCI-H522 = test system: NCI-H522
A549 = test system: A549
OVCAR-4 = test system: OVCAR-4
NCI-H460 = test system: NCI-H460
HCC 2998 = test system: HCC 2998

CNC(=O)C1OC(n2cnc3c(NCc4cccc(I)c4)nc(Cl)nc32)C(O)C1O (stereo not given)
GI50 (MCF7): 12.8 µM (inactive) | GI50 (MDA-MB-435): 11.3 µM (inactive) | GI50 (RXF 393): 10.4 µM (inactive) | GI50 (Hs-578T): 1.55 µM (inactive) | GI50 (CAKI-1): 19.3 µM (inactive) | GI50 (786-0): 18.6 µM (inactive) | GI50 (MOLT-4): 14.2 µM (inactive) | GI50 (UO-31): 11.9 µM (inactive) | GI50 (SF-268): 11.4 µM (inactive) | GI50 (T47D): 15.6 µM (inactive) | GI50 (SN12C): 16.6 µM (inactive) | GI50 (NCI/ADR-RES): 11.7 µM (inactive) | GI50 (SK-MEL-2): 14.7 µM (inactive) | GI50 (ACHN): 11.8 µM (inactive) | GI50 (RPMI-8226): 18.9 µM (inactive) | GI50 (MDA-N): 20.7 µM (inactive) | GI50 (SW-620): 14.9 µM (inactive) | GI50 (OVCAR-5): 14 µM (inactive) | GI50 (HCT-116): 15.6 µM (inactive) | GI50 (SNB-75): 0.839 µM (active) | GI50 (BT-549): 14.1 µM (inactive) | GI50 (SF-539): 11 µM (inactive) | GI50 (COLO 205): 22.5 µM (inactive) | GI50 (IGROV-1): 14.1 µM (inactive) | GI50 (HL-60): 15.3 µM (inactive) | GI50 (A498): 13.8 µM (inactive) | GI50 (OVCAR-8): 13.8 µM (inactive) | GI50 (SNB-19): 12.4 µM (inactive) | GI50 (EKVX): 13.5 µM (inactive) | GI50 (K562): 12.9 µM (inactive) | GI50 (LOX IMVI): 6.18 µM (inactive) | GI50 (KM12): 12 µM (inactive) | GI50 (OVCAR-3): 13 µM (inactive) | GI50 (Malme-3M): 3.64 µM (inactive) | GI50 (NCI-H23): 12.7 µM (inactive) | GI50 (U-251): 14.8 µM (inactive) | GI50 (SR): 14 µM (inactive) | GI50 (SK-OV-3): 17.2 µM (inactive) | GI50 (DU-145): 19.7 µM (inactive) | GI50 (NCI-H226): 7.69 µM (inactive) | GI50 (PC-3): 11.9 µM (inactive) | GI50 (HOP-62): 12.7 µM (inactive) | GI50 (HCT-15): 1.06 µM | GI50 (UACC-257): 11.4 µM (inactive) | GI50 (CCRF-CEM): 16.7 µM (inactive) | GI50 (SF-295): 18.7 µM (inactive) | GI50 (UACC-62): 10.1 µM (inactive) | GI50 (SK-MEL-5): 12 µM (inactive) | GI50 (MDA-MB-231): 22.8 µM (inactive) | GI50 (TK-10): 16.3 µM (inactive) | GI50 (M14): 10.3 µM (inactive)

CN(C(=O)Cc1ccc(Cl)c(Cl)c1)[C@H]1CCCC[C@@H]1[N+]1(C)CCCC1
GI50 (MCF7): > 100 µM (inactive) | GI50 (SK-MEL-28): > 100 µM (inactive) | GI50 (MDA-MB-435): > 100 µM (inactive) | GI50 (HT-29): > 100 µM (inactive) | GI50 (Hs-578T): > 100 µM (inactive) | GI50 (CAKI-1): > 100 µM (inactive) | GI50 (NCI-H522): > 100 µM (inactive) | GI50 (786-0): > 100 µM (inactive) | GI50 (MOLT-4): > 100 µM (inactive) | GI50 (UO-31): > 100 µM (inactive) | GI50 (SF-268): > 100 µM (inactive) | GI50 (T47D): > 100 µM (inactive) | GI50 (SN12C): > 100 µM (inactive) | GI50 (NCI/ADR-RES): > 100 µM (inactive) | GI50 (SK-MEL-2): > 100 µM (inactive) | GI50 (ACHN): > 100 µM (inactive) | GI50 (RPMI-8226): > 100 µM (inactive) | GI50 (MDA-N): > 100 µM (inactive) | GI50 (SW-620): > 100 µM (inactive) | GI50 (OVCAR-5): > 100 µM (inactive) | GI50 (HCT-116): > 100 µM (inactive) | GI50 (BT-549): > 100 µM (inactive) | GI50 (SF-539): > 100 µM (inactive) | GI50 (COLO 205): > 100 µM (inactive) | GI50 (A549): > 100 µM (inactive) | GI50 (IGROV-1): > 100 µM (inactive) | GI50 (A498): > 100 µM (inactive) | GI50 (OVCAR-8): > 100 µM (inactive) | GI50 (SNB-19): > 100 µM (inactive) | GI50 (EKVX): > 100 µM (inactive) | GI50 (K562): > 100 µM (inactive) | GI50 (OVCAR-4): > 100 µM (inactive) | GI50 (LOX IMVI): > 100 µM (inactive) | GI50 (KM12): > 100 µM (inactive) | GI50 (OVCAR-3): > 100 µM (inactive) | GI50 (Malme-3M): > 100 µM (inactive) | GI50 (NCI-H23): > 100 µM (inactive) | GI50 (U-251): > 100 µM (inactive) | GI50 (SR): > 100 µM (inactive) | GI50 (SK-OV-3): > 100 µM (inactive) | GI50 (DU-145): > 100 µM (inactive) | GI50 (NCI-H226): > 100 µM (inactive) | GI50 (PC-3): > 100 µM (inactive) | GI50 (HOP-62): > 100 µM (inactive) | GI50 (HCT-15): > 100 µM | GI50 (UACC-257): > 100 µM (inactive) | GI50 (CCRF-CEM): 3.37 µM (inactive) | GI50 (SF-295): > 100 µM (inactive) | GI50 (UACC-62): > 100 µM (inactive) | GI50 (SK-MEL-5): 71.6 µM (inactive) | GI50 (MDA-MB-231): > 100 µM (inactive) | GI50 (TK-10): > 100 µM (inactive) | GI50 (M14): > 100 µM (inactive)

O=C(N/N=C1\CCc2ccccc21)N/N=C1\CCc2ccccc21
GI50 (MCF7): > 100 µM (inactive) | GI50 (NCI-H460): > 100 µM (inactive) | GI50 (SK-MEL-28): > 100 µM (inactive) | GI50 (MDA-MB-435): > 100 µM (inactive) | GI50 (HT-29): > 100 µM (inactive) | GI50 (RXF 393): > 100 µM (inactive) | GI50 (Hs-578T): > 100 µM (inactive) | GI50 (CAKI-1): > 100 µM (inactive) | GI50 (HCC 2998): > 100 µM (inactive) | GI50 (NCI-H522): > 100 µM (inactive) | GI50 (786-0): > 100 µM (inactive) | GI50 (MOLT-4): > 100 µM (inactive) | GI50 (UO-31): > 100 µM (inactive) | GI50 (SF-268): > 100 µM (inactive) | GI50 (T47D): > 100 µM (inactive) | GI50 (SN12C): > 100 µM (inactive) | GI50 (NCI/ADR-RES): > 100 µM (inactive) | GI50 (SK-MEL-2): > 100 µM (inactive) | GI50 (ACHN): > 100 µM (inactive) | GI50 (RPMI-8226): > 100 µM (inactive) | GI50 (MDA-N): 11.2 µM (inactive) | GI50 (SW-620): > 100 µM (inactive) | GI50 (OVCAR-5): > 100 µM (inactive) | GI50 (HCT-116): > 100 µM (inactive) | GI50 (SNB-75): > 100 µM (inactive) | GI50 (BT-549): > 100 µM (inactive) | GI50 (SF-539): > 100 µM (inactive) | GI50 (COLO 205): > 100 µM (inactive) | GI50 (A549): > 100 µM (inactive) | GI50 (IGROV-1): > 100 µM (inactive) | GI50 (HL-60): > 100 µM (inactive) | GI50 (A498): > 100 µM (inactive) | GI50 (OVCAR-8): > 100 µM (inactive) | GI50 (SNB-19): > 100 µM (inactive) | GI50 (K562): > 100 µM (inactive) | GI50 (LOX IMVI): > 100 µM (inactive) | GI50 (KM12): > 100 µM (inactive) | GI50 (OVCAR-3): > 100 µM (inactive) | GI50 (Malme-3M): > 100 µM (inactive) | GI50 (NCI-H23): > 100 µM (inactive) | GI50 (U-251): > 100 µM (inactive) | GI50 (SR): 0.055 µM (active) | GI50 (SK-OV-3): > 100 µM (inactive) | GI50 (DU-145): > 100 µM (inactive) | GI50 (NCI-H226): > 100 µM (inactive) | GI50 (PC-3): > 100 µM (inactive) | GI50 (HOP-62): > 100 µM (inactive) | GI50 (HCT-15): > 100 µM | GI50 (UACC-257): > 100 µM (inactive) | GI50 (CCRF-CEM): > 100 µM (inactive) | GI50 (SF-295): > 100 µM (inactive) | GI50 (UACC-62): > 100 µM (inactive) | GI50 (SK-MEL-5): > 100 µM (inactive) | GI50 (MDA-MB-231): 12.9 µM (inactive) | GI50 (TK-10): > 100 µM (inactive) | GI50 (M14): 13.5 µM (inactive)
